Measured values: patent publication US20210047290A1, “SPIRO COMPOUND AS INDOLEAMINE-2,3-DIOXYGENASE INHIBITOR” (SHANGHAI INSTITUTE OF ORGANIC CHEMISTRY, CHINESE ACADEMY OF …, priority 2018, published 2021)
pIC50: −log10 of the molar value.

Key:
IDO enzyme = target: T1, IDO enzyme (Homo sapiens, UniProt P14902); assay: IDO enzyme inhibitory activity test; type: biochemical; settings: recombinant IDO, D-Trp substrate, reading at 321 nm for 40 min
T1 construct: made in house; host or cells: E. coli BL21 (pET28a-IDO plasmid)
T1 sequence (P14902 whole entry): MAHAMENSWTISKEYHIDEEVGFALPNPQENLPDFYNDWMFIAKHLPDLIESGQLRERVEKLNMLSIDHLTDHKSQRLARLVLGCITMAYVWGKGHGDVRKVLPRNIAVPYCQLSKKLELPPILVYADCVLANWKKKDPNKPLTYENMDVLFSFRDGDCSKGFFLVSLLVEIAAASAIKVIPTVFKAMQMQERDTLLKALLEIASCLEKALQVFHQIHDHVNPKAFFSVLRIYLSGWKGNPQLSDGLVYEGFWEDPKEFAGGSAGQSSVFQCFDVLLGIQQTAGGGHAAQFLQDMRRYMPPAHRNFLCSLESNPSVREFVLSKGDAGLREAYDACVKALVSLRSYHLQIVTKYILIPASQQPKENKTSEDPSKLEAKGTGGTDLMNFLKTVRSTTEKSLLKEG
Description: (1) Induced Expression and Purification Method of IDO Protein
Firstly, DO gene was amplified with PCR, and the amplified PCR product was recycled. Digestion (2 h under 37° C.), gel running and recycling were carried out on the pET28a plasmid (purchased from Shanghai Baomanbio Co., Ltd.) and IDO gel with two restriction enzymes (EcoR I and Xho I). T4 ligase was connected with the product overnight, added into DH5α competence, placed on the ice for 30 min and subjected to thermal shock at 42° C. for 90 s.
BL21 which contained pET28a-IDO plasmid was shaken vigorously at 37° C. till OD600 was 0.6-0.8, added into hemin (final concentration: 40 μM) and 0.5 mM IPTG (isopropyl-3-D-IPTG) and induced under 16° C. for 20 h; after induction, thallus were collected centrifugally at 4° C. and 6,000 rpm, washed with 50 mM PBS (pH 7.5) and collected again centrifugally.
The collected thallus were suspended again with buffer solution (50 mM PBS pH 7.5). An appropriate amount of 100×PMSF was added. The thallus were disrupted with cell disruption instrument (1,400 bar) at 4° C. for three times. The split bacteria were centrifuged at 18,000×g for 45 min. The sediment was removed but supernatant was retained and filtered with a 0.45 μm film at 4° C.; the nickel column was balanced with lysis buffer (50 mM PBS pH7.5) by 3 column volumes.
The supernatant was loaded on the nickel column and washed with wash solution (50 mM PBS pH7.5, 50 mM imidazole) by 4 column volume. Finally, protein was eluted with eluant (50 mM PBS pH7.5, 250 mM imidazole); dialyzed for 6 h with dialysis solution (50 mM PBS pH7.5), concentrated, sub-packaged, quickly frozen with liquid nitrogen and stored at −80° C. for backup.
(2) Test Method for IDO Enzyme Inhibitory Activity
Firstly, the compound was diluted by triple gradient. 1 μL of each concentration was added into a 96-well plate; 50 μL of IDO Enzyme solution PBS (pH 7.5; final concentration: 50 mM) was added: 25 μL of substrate 1 (methylene blue, final concentration: […]; catalase, final concentration: 0.2 μg/L; PBS (pH 7.5; final concentration: 50 mM) mixture and 25 μL of substrate 2 (D-Trp, final concentration: 1.5 mM; sodium ascorbate, final concentration: 20 mM; PBS (pH 7.5), final concentration 50 mM) mixture were added for starting the reaction. Finally, OOD321 nm reading was carried out for 40 min.

IDO in Hela cells = target: T2, IDO in Hela cells (Homo sapiens, UniProt P14902); assay: Test of cellular activity (kynurenine formation in interferon γ stimulated Hela cells); type: cell-based; settings: head prints IPS cells, method: Hela cells, 48 h incubation, read at 480 nm
T2 construct: endogenous in cells; host or cells: HeLa cells stimulated with human interferon γ
T2 sequence (P14902 whole entry): as above
Description: (3) Test Method of Cellular Activity
Hela cells (80 μL) was inoculated on a 96-well plate (5×10^3 for each well) to grow overnight. After the compound was diluted the next day, 1 μL of diluent and 100 μL of culture medium which contains human interferon γ (final concentration: 50 ng/m) were added into the 96-well plate to make the final volume reach […]. After incubating for 48 h, 80 μL of supernate was transferred from each well to a new […]. 10 μL 6.1N trichloroacetic acid was added into each well for mixing and incubation at 50° C. for 30 min, and […] N formyl-kynurenin into kynurenine. The reaction mixture was centrifuged at 2,500 rpm for 10 min, 70 μL of supernatant of each well was transferred to a new 96-well plate and mixed with 100 μL of 2% (w/v) dimethylaminobenzaldehyde acetic acid solution. After placing for 5-10 min, measurement was carried out at 480 nm with the SPECTRAmax i13 reader.

Row | Compound | pIC50 (IDO enzyme) | pIC50 (IDO in Hela cells)
1 | O=C(Nc1ccc(Cl)cc1)C1CC12CCC(c1ccnc3ccccc13)CC2 (racemic) [Example 2B, (±)-(cis/trans)-N-(4-chlorophenyl)-6-(quinolin-4-yl)spiro[2.5]octane-1-carboxamide] | 6.30 | –
2 | O=C(Nc1ccc(Cl)cc1)C1CCC12CCC(c1ccnc3ccc(F)cc13)CC2 (racemic) [Example 10B, (±) N-(4-chlorophenyl)-7-(6-fluoroquinolin-4-yl)spiro[3.5]nonane-1-carboxamide] | – | < 8.52
3 | O=C(Nc1ccc(F)cc1)C1CC2(CCC(c3ccnc4ccc(F)cc34)CC2)C1 (single isomer, unassigned) [Example 25, N-(4-fluorophenyl)-7-(6-fluoroquinolin-4-yl)spiro[3.5]nonane-2-carboxamide] | – | 9.16
4 | O=C(Nc1ccc(Br)cc1)C1CC2(CCC(c3ccnc4ccc(F)cc34)CC2)C1 (single isomer, unassigned) [Example 26, N-(4-bromophenyl)-7-(6-fluoroquinoline-4-yl)spiro[3.5]nonane-2-carboxamide] | – | 9.10
5 | O=C(Nc1ccccn1)C1CC2(CCC(c3ccnc4ccc(F)cc34)CC2)C1 (single isomer, unassigned) [Example 27] | – | < 8.00
6 | Cn1ccc(-c2ccc(NC(=O)C3CC4(CCC(c5ccnc6ccc(F)cc56)CC4)C3)cc2F)n1 (single isomer, unassigned) [Example 28, N-(3-fluoro-4-(1-methyl-1H-pyrazol-3-yl)phenyl)-7-(6-fluoroquinolin-4-yl)spiro[3.5]nonane-2-carboxamide] | – | < 8.00
7 | O=C(Nc1ccccc1Cl)C1CC2(CCC(c3ccnc4ccc(F)cc34)CC2)C1 (single isomer, unassigned) [Example 29, N-(2-chlorophenyl)-7-(6-fluoroquinolin-4-yl)spiro[3.5]nonane-2-carboxamide] | – | < 8.00
8 | O=C(Nc1ccc(Cl)cc1F)C1CC2(CCC(c3ccnc4ccc(F)cc34)CC2)C1 (single isomer, unassigned) [Example 30, N-(4-chloro-2-fluorophenyl)-7-(6-fluoroquinoline-4-yl)spiro[3.5]nonane-2-carboxamide] | – | 8.60
9 | O=C(Nc1cccc(F)c1)C1CC2(CCC(c3ccnc4ccc(F)cc34)CC2)C1 (single isomer, unassigned) [Example 31, N-(3-fluorophenyl)-7-(6-fluoroquinoline-4-yl)spiro[3.5]nonane-2-carboxamide] | – | 8.71
10 | O=C(Nc1cccc(Br)c1)C1CC2(CCC(c3ccnc4ccc(F)cc34)CC2)C1 (single isomer, unassigned) [Example 32, N-(3-bromophenyl)-7-(6-fluoroquinoline-4-yl)spiro[3.5]nonane-2-carboxamide] | – | < 8.00
11 | O=C(Nc1cccnc1)C1CC2(CCC(c3ccnc4ccc(F)cc34)CC2)C1 (single isomer, unassigned) [Example 33, 7-(6-fluoroquinoline-4-yl)-N-(pyridine-3-yl)spiro[3.5]nonane-2-carboxamide] | – | < 8.00
12 | O=C(Nc1ccc(Cl)c(F)c1)C1CC2(CCC(c3ccnc4ccc(F)cc34)CC2)C1 (single isomer, unassigned) [Example 34, N-(3-fluoro-4-chlorophenyl)-7-(6-fluoroquinoline-4-yl)spiro[3.5]nonane-2-carboxamide] | – | 8.87
13 | O=C(Nc1ccc(C(F)(F)F)cc1)C1CC2(CCC(c3ccnc4ccc(F)cc34)CC2)C1 (single isomer, unassigned) [Example 35, 7-(6-fluoroquinolin-4-yl)-N-(4-(trifluoromethyl)phenyl)spiro[3.5]nonane-2-carboxamide] | – | 8.21
14 | O=C(Nc1cccc(Cl)c1)C1CC2(CCC(c3ccnc4ccc(F)cc34)CC2)C1 (single isomer, unassigned) [Example 36, N-(3-chlorophenyl)-7-(6-fluoroquinoline-4-yl)spiro[3.5]nonane-2-carboxamide] | – | 8.08
15 | O=C(Nc1ccc(Br)c(F)c1)C1CC2(CCC(c3ccnc4ccc(F)cc34)CC2)C1 (single isomer, unassigned) [Example 37, N-(3-fluoro-4-bromophenyl)-7-(6-fluoroquinoline-4-yl)spiro[3.5]nonane-2-carboxamide] | – | < 8.00
16 | O=C(Nc1ccc(F)c(Cl)c1)C1CC2(CCC(c3ccnc4ccc(F)cc34)CC2)C1 (single isomer, unassigned) [Example 38, N-(3-chloro-4-fluorophenyl)-7-(6-fluoroquinoline-4-yl)spiro[3.5]nonane-2-carboxamide] | – | < 8.00
17 | O=C(Nc1ccc(F)c(F)c1)C1CC2(CCC(c3ccnc4ccc(F)cc34)CC2)C1 (single isomer, unassigned) [Example 40, N-(3,4-difluorophenyl)-7-(6-fluoroquinoline-4-yl)spiro[3.5]nonane-2-carboxamide] | – | 8.52
18 | O=C(Nc1ccccc1C(F)(F)F)C1CC2(CCC(c3ccnc4ccc(F)cc34)CC2)C1 (single isomer, unassigned) [Example 41, 7-(6-fluoroquinoline-4-yl)-N-(2-(trifluoromethyl)phenyl)spiro[3.5]nonane-2-carboxamide] | – | < 8.00
19 | O=C(Nc1ccc(Cl)cn1)C1CC2(CCC(c3ccnc4ccc(F)cc34)CC2)C1 (single isomer, unassigned) [Example 42, N-(5-chloropyridine-2-yl)-7-(6-fluoroquinoline-4-yl)spiro[3.5]nonane-2-carboxamide] | – | 8.02
20 | O=C(Nc1ccc(-c2ccccc2)cc1)C1CC2(CCC(c3ccnc4ccc(F)cc34)CC2)C1 (single isomer, unassigned) [Example 43, N-([1,1′-biphenyl]-4-yl)-7-(6-fluoroquinolin-4-yl)spiro[3.5]nonane-2-carboxamide] | – | 8.51
21 | O=C(Nc1cccc(-c2ccccc2)c1)C1CC2(CCC(c3ccnc4ccc(F)cc34)CC2)C1 (single isomer, unassigned) [Example 44, N-([1,1′-biphenyl]-3-yl)-7-(6-fluoroquinolin-4-yl)spiro[3.5]nonane-2-carboxamide] | – | < 8.00
22 | O=C(Nc1ccc(C(F)(F)F)c(Cl)c1)C1CC2(CCC(c3ccnc4ccc(F)cc34)CC2)C1 (single isomer, unassigned) [Example 45, N-(3-chloro-4-(trifluoromethyl)phenyl)-7-(6-fluoroquinoline-4-yl)spiro[3.5]nonane-2-carboxamide] | – | < 8.00
23 | O=C(Nc1ccccc1F)C1CC2(CCC(c3ccnc4ccc(F)cc34)CC2)C1 (single isomer, unassigned) [Example 46, N-(2-fluorophenyl)-7-(6-fluoroquinoline-4-yl)spiro[3.5]nonane-2-carboxamide] | – | 8.56
24 | O=C(Nc1ccccc1Br)C1CC2(CCC(c3ccnc4ccc(F)cc34)CC2)C1 (single isomer, unassigned) [Example 47, N-(2-bromophenyl)-7-(6-fluoroquinoline-4-yl)spiro[3.5]nonane-2-carboxamide] | – | < 8.00
25 | O=C(Nc1ccncc1)C1CC2(CCC(c3ccnc4ccc(F)cc34)CC2)C1 (single isomer, unassigned) [Example 48] | – | < 8.00
26 | N#Cc1ccc(NC(=O)C2CC3(CCC(c4ccnc5ccc(F)cc45)CC3)C2)cc1 (single isomer, unassigned) [Example 49, N-(4-cyanophenyl)-7-(6-fluoroquinolin-4-yl)spiro[3.5]nonane-2-carboxamide] | – | 8.88
27 | O=C(Nc1cccc(C(F)(F)F)c1)C1CC2(CCC(c3ccnc4ccc(F)cc34)CC2)C1 [Example 39, (2S,4s,7S)-7-(6-fluoroquinoline-4-yl)-N-(3-(trifluoromethyl)phenyl)spiro[3.5]nonane-2-carboxamide] | – | < 8.00
